This is an account of results in ChEMBL document CHEMBL2390874, “Synthesis, antibacterial activity and cytotoxicity of new fused pyrazolo[1,5-a]pyrimidine and pyrazolo[5,1-c][1,2,4]triazine derivatives from new 5-aminopyrazoles” (Eur J Med Chem, 2013).

Converted amounts (≈) assume the structure as drawn. The source made the active and inactive calls. The calls are words filed in the database; no cut-off is given here.

Series [1] relates to Bacillus subtilis. In words: Antibacterial activity against Bacillus subtilis ATCC 11774 assessed as growth inhibition after 24 hrs by agar diffusion method. The format is functional. For orientation: A growth-free zone around the sample is the usual read-out of agar diffusion tests.
For series [2], the system named is Staphylococcus aureus. In words: Antibacterial activity against Staphylococcus aureus ATCC 25923 assessed as growth inhibition after 24 hrs by agar diffusion method. It is filed as functional.
Series [3] concerns Serratia marcescens. Put plainly: Antibacterial activity against Serratia marcescens ATCC 13880 assessed as growth inhibition at 10 ug after 24 hrs by agar diffusion method. It is filed as functional. To be noted: ATCC 13880, 24 h, read-out: DIZ.
The test system of series [4] is Escherichia coli. In words: Antibacterial activity against Escherichia coli ATCC 10536 assessed as growth inhibition at 10 ug after 24 hrs by agar diffusion method. The format is functional. To be noted: ATCC 10536, 24 h, read-out: DIZ.
The subject of series [5] is Pseudomonas aeruginosa. Put plainly: Antibacterial activity against Pseudomonas aeruginosa ATCC 10145 assessed as growth inhibition at 10 ug after 24 hrs by agar diffusion method. The format is functional. To be noted: ATCC 10145, 24 h, read-out: DIZ.
The nature of series [6]: Selectivity index, ratio of CC50 for african green monkey vero cells to MIC for Pseudomonas aeruginosa ATCC 10145. The format is functional.
Series [7] in a line: Selectivity index, ratio of CC50 for african green monkey vero cells to MIC for Serratia marcescens ATCC 13880. It is filed as functional.
The nature of series [8]: Selectivity index, ratio of CC50 for african green monkey vero cells to MIC for Escherichia coli ATCC 10536. It is filed as functional.
Series [9] in a line: Selectivity index, ratio of CC50 for african green monkey vero cells to MIC for Bacillus subtilis ATCC 11774. It is filed as functional.
A short description of series [10]: Selectivity index, ratio of CC50 for african green monkey vero cells to MIC for Staphylococcus aureus ATCC 25923. It is filed as functional.
In the next series the test system is Salmonella typhimurium. In words: Antibacterial activity against Salmonella typhimurium ATCC 51812 assessed as growth inhibition at 1 mg/ml after 24 hrs by agar diffusion method. It is filed as functional, organism-based. As to conditions: Salmonella enterica subsp. enterica serovar Typhimurium.
A further series has as its system Enterococcus faecalis. In words: Antibacterial activity against Enterococcus faecalis ATCC 14506 assessed as growth inhibition at 1 mg/ml after 24 hrs by agar diffusion method. It is filed as functional, organism-based.
In series [11] the test system is Staphylococcus epidermidis. In words: Antibacterial activity against Staphylococcus epidermidis ATCC 12228 assessed as growth inhibition at 1 mg/ml after 24 hrs by agar diffusion method. The format is functional, organism-based.
Series [12] in a line: Cytotoxicity against african green monkey vero cells by MTT assay. It is filed as cell-based. As to conditions: chlorocebus sabaeus. Background: Tetrazolium assays rely on reduction of a dye to a coloured formazan, in cell work by metabolically active cells.
Series [13] concerns Staphylococcus aureus. In words: Antibacterial activity against methicillin-resistant Staphylococcus aureus ATCC 43300 assessed as growth inhibition at 1 mg/ml after 24 hrs by agar diffusion method. It is filed as functional, organism-based.
Series [14] concerns Serratia marcescens. In words: Bactericidal activity against Serratia marcescens ATCC 13880 by broth dilution method. The format is functional.
Series [15] has as its system Pseudomonas aeruginosa. In words: Bactericidal activity against Pseudomonas aeruginosa ATCC 10145 by broth dilution method. It is filed as functional. For orientation: Dilution methods test growth across graded concentrations, often in twofold steps.
Series [16] concerns Staphylococcus aureus. In words: Bactericidal activity against Staphylococcus aureus ATCC 25923 by broth dilution method. The format is functional.
Series [17] has as its system Escherichia coli. In words: Bactericidal activity against Escherichia coli ATCC 10536 by broth dilution method. It is filed as functional.
In series [18] the test system is Bacillus subtilis. Put plainly: Bactericidal activity against Bacillus subtilis ATCC 11774 by broth dilution method. The format is functional.
Series [19] relates to Serratia marcescens. In words: Antibacterial activity against Serratia marcescens ATCC 13880 assessed as growth inhibition by broth dilution method. The format is functional.
Series [20] relates to Escherichia coli. Put plainly: Antibacterial activity against Escherichia coli ATCC 10536 assessed as growth inhibition by broth dilution method. It is filed as functional.
Series [21] relates to Pseudomonas aeruginosa. In words: Antibacterial activity against Pseudomonas aeruginosa ATCC 10145 assessed as growth inhibition by broth dilution method. The format is functional.
Series [22] relates to Staphylococcus aureus. Put plainly: Antibacterial activity against Staphylococcus aureus ATCC 25923 assessed as growth inhibition by broth dilution method. It is filed as functional.
Series [23] has as its system Serratia marcescens. Put plainly: Antibacterial activity against Serratia marcescens ATCC 13880 assessed as growth inhibition at 1 mg/ml after 24 hrs by agar diffusion method. To be noted: ATCC 13880, 24 h, read-out: DIZ. The format is functional.
Series [24] relates to Bacillus subtilis. Put plainly: Antibacterial activity against Bacillus subtilis ATCC 11774 assessed as growth inhibition by broth dilution method. The format is functional.
Series [25] deals with Pseudomonas aeruginosa. In words: Antibacterial activity against Pseudomonas aeruginosa ATCC 10145 assessed as growth inhibition at 1 mg/ml after 24 hrs by agar diffusion method. To be noted: ATCC 10145, 24 h, read-out: DIZ. The format is functional.
Series [26] concerns Escherichia coli. In words: Antibacterial activity against Escherichia coli ATCC 10536 assessed as growth inhibition at 1 mg/ml after 24 hrs by agar diffusion method. It is filed as functional. As to conditions: ATCC 10536, 24 h, read-out: DIZ.
In series [27] the test system is Staphylococcus aureus. In words: Antibacterial activity against Staphylococcus aureus ATCC 25923 assessed as growth inhibition at 1 mg/ml after 24 hrs by agar diffusion method. The format is functional. As to conditions: ATCC 25923, 24 h, read-out: DIZ.
Series [28] relates to Bacillus subtilis. In words: Antibacterial activity against Bacillus subtilis ATCC 11774 assessed as growth inhibition at 1 mg/ml after 24 hrs by agar diffusion method. It is filed as functional. To be noted: ATCC 11774, 24 h, read-out: DIZ.

Take `O=C(N[C@H](CO)[C@H](O)c1ccc([N+](=O)[O-])cc1)C(Cl)Cl` [CHLORAMPHENICOL]: the “diameter of the inhibition zone (DIZ)” value in the series on Bacillus subtilis [1] and in the series on Staphylococcus aureus [2] was 25 mm in each case.
On to `CN[C@@H]1[C@H](O[C@H]2[C@H](O[C@H]3[C@H](O)[C@@H](O)[C@H](N=C(N)N)[C@@H](O)[C@@H]3N=C(N)N)O[C@@H](C)[C@]2(O)C=O)O[C@@H](CO)[C@H](O)[C@H]1O` [STREPTOMYCIN], for which the zone of inhibition at 10 µg/disc in the series on Serratia marcescens [3] is 20 mm; in the series with Escherichia coli [4], 13 mm; in the series on Pseudomonas aeruginosa [5] it was 14 mm.
On to `CSc1c(C#N)c(N)nc2c(C#N)c(N3CCCCC3)nn12`, for which the “Selectivity Index” value in series [6] is 0.22; in series [7], 0.11; in series [8], 0.11; in [9], 0.11; in series [10], 0.11. Besides, the “growth inhibition (GI)” value (in the series on Salmonella typhimurium; in the series with Enterococcus faecalis; in series [11]; in the series with Staphylococcus aureus [13]) was “inactive” in each case. The CC50 (in general, the concentration at which the toxic effect on the cells reaches its halfway point) in series [12] worked out at 1.75 mg/mL (≈ 5.58 mM). The MBC against Serratia marcescens [14], against Pseudomonas aeruginosa [15], against Staphylococcus aureus [16], with Escherichia coli [17] and in the series on Bacillus subtilis [18] was 16 mg/mL (≈ 51.1 mM) each time. Moreover, the MIC (usually the lowest concentration found to suppress growth) with Serratia marcescens [19] turned out to be 16 mg/mL (≈ 51.1 mM); in the series with Escherichia coli [20], 16 mg/mL (≈ 51.1 mM); in the series on Pseudomonas aeruginosa [21], 8 mg/mL (≈ 25.5 mM); in the series with Staphylococcus aureus [22], 16 mg/mL (≈ 51.1 mM); in the series with Bacillus subtilis [24] it was 16 mg/mL (≈ 51.1 mM). Further, the zone of inhibition at 1000 µg/mL in the series with Serratia marcescens [23] was found to be 7 mm; with Pseudomonas aeruginosa [25] it was 7 mm; in the series with Escherichia coli [26], 10 mm; in the series on Staphylococcus aureus [27], 11 mm; in the series on Bacillus subtilis [28], 10 mm.
With `N#Cc1c(N2CCCCC2)n[nH]c1N`, the “Selectivity Index” value in [6] is on record as 0.07; in [7], 0.28; in [8], 0.14; in series [9], 0.14; in [10], 0.14. Besides, the “growth inhibition (GI)” value (in the series on Salmonella typhimurium; with Enterococcus faecalis; in series [11]; in the series with Staphylococcus aureus [13]) was “inactive” in each case. The molecule also gave a half-maximal cytotoxic concentration (CC50) in series [12] of 0.55 mg/mL (≈ 2.88 mM). In addition, the MBC (usually the lowest tested concentration that kills the bacteria rather than only halting them) in the series with Serratia marcescens [14] worked out at 4 mg/mL (≈ 20.9 mM); in the series with Pseudomonas aeruginosa [15] it was 8 mg/mL (≈ 41.8 mM); against Staphylococcus aureus [16], 16 mg/mL (≈ 83.7 mM); in the series with Escherichia coli [17], 8 mg/mL (≈ 41.8 mM); against Bacillus subtilis [18] it was 8 mg/mL (≈ 41.8 mM). The MIC amounted to 2 mg/mL (≈ 10.5 mM) in the series on Serratia marcescens [19]; 4 mg/mL (≈ 20.9 mM) with Escherichia coli [20]; 8 mg/mL (≈ 41.8 mM) with Pseudomonas aeruginosa [21]; 16 mg/mL (≈ 83.7 mM) with Staphylococcus aureus [22]; 4 mg/mL (≈ 20.9 mM) with Bacillus subtilis [24]. Moreover, the zone of inhibition at 1000 µg/mL with Serratia marcescens [23] came out at 6 mm; in the series with Pseudomonas aeruginosa [25], 7 mm; with Escherichia coli [26], 15 mm; with Staphylococcus aureus [27] it was 15 mm; in the series with Bacillus subtilis [28], 9 mm.
